{"source": "patent US11793841B2", "about": "“Microbial compositions and methods for treating type 2 diabetes, obesity, and metabolic syndrome” (Solarea Bio, Inc., priority 2017, dated 2023)", "tested_on": "diet induced obese (DIO) C57BL/6J mice", "assay": "Oral glucose tolerance test (OGTT) in diet induced obese mice", "format": "in vivo", "conditions": "monotherapy; by 60 minutes", "method": "After 4 weeks of dosing mice with test article, an OGTT was performed. Here, mice were fasted for 6 hours after which fasting blood glucose levels were measured via tail vein blood using a glucometer (One-Touch Ultra II). Mice were then dosed with an oral glucose bolus (2 g/kg) via oral gavage, and blood glucose was measured at 20, 40, 60, and 120 minutes post gavage."}
{"smiles": "CN(C)C(=N)N=C(N)N", "note": "[metformin]", "values": [{"measurement": "blood glucose after glucose challenge", "value": "remained elevated"}]}
